According to PubChem BioAssay (NCI):
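In this assay, cells in 96-well plates receive the compound at five concentrations for 48 hours. Endpoints are linearly interpolated between the surrounding concentrations. The concentration for 50% growth inhibition is given as GI50. The concentration for full growth arrest is given as TGI.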

What was measured:
Experiment in all cases: inhibition of tumour cell growth, NCI panel, 48 h
MALME-3M melanoma = system: MALME-3M melanoma
NCI-H522 lung = system: NCI-H522 lung
SF-268 CNS = system: SF-268 CNS
PC-3 prostate = system: PC-3 prostate
DU-145 prostate = system: DU-145 prostate
A549 NSCLC = system: A549 NSCLC
TK-10 renal = system: TK-10 renal
NCI-H226 lung = system: NCI-H226 lung
MOLT-4 leukemia = system: MOLT-4 leukemia
SR leukemia = system: SR leukemia

Compound: CCNCCNc1cc(-c2ccc(F)cc2)c(C#N)c2nc3ccccc3n12
- GI50 (MALME-3M melanoma): 1.77 µM
- TGI (MALME-3M melanoma): 3.45 µM
- GI50 (NCI-H522 lung): 2.93 µM
- TGI (NCI-H522 lung): 9.43 µM
- GI50 (SF-268 CNS): 3.09 µM
- TGI (SF-268 CNS): 12.8 µM
- GI50 (PC-3 prostate): 6.98 µM
- TGI (PC-3 prostate): 19.5 µM
- GI50 (DU-145 prostate): 4.01 µM
- TGI (DU-145 prostate): 14.9 µM
- GI50 (A549 NSCLC): 4.78 µM
- TGI (A549 NSCLC): 15.4 µM
- GI50 (TK-10 renal): 2.33 µM
- TGI (TK-10 renal): 8.45 µM
- GI50 (NCI-H226 lung): 12 µM
- TGI (NCI-H226 lung): 27 µM

Compound: COc1ccc(-c2ccc(-c3ccc(C(=N)N)cn3)s2)cc1Cl
- GI50 (MALME-3M melanoma): 1.3 µM
- TGI (MALME-3M melanoma): 2.9 µM
- GI50 (NCI-H522 lung): 1.95 µM
- TGI (NCI-H522 lung): 4.46 µM
- GI50 (SF-268 CNS): 1.8 µM
- TGI (SF-268 CNS): 3.43 µM
- GI50 (PC-3 prostate): 1.77 µM
- TGI (PC-3 prostate): 3.51 µM
- GI50 (DU-145 prostate): 1.69 µM
- TGI (DU-145 prostate): 3.06 µM
- GI50 (TK-10 renal): 1.79 µM
- TGI (TK-10 renal): 3.41 µM

Compound: COc1ccc2c(c1)OC13Oc4cc(OC)ccc4C=C1CCCC3=C2
- GI50 (MALME-3M melanoma): > 100 µM
- TGI (MALME-3M melanoma): > 100 µM
- GI50 (NCI-H522 lung): > 100 µM
- TGI (NCI-H522 lung): > 100 µM
- GI50 (SF-268 CNS): > 100 µM
- TGI (SF-268 CNS): > 100 µM
- GI50 (PC-3 prostate): > 100 µM
- TGI (PC-3 prostate): > 100 µM
- GI50 (MOLT-4 leukemia): 5.81 µM
- TGI (MOLT-4 leukemia): > 100 µM
- GI50 (SR leukemia): 4.89 µM
- TGI (SR leukemia): > 100 µM
- GI50 (DU-145 prostate): > 100 µM
- TGI (DU-145 prostate): > 100 µM
- GI50 (A549 NSCLC): > 100 µM
- TGI (A549 NSCLC): > 100 µM
- GI50 (TK-10 renal): > 100 µM
- TGI (TK-10 renal): > 100 µM
- GI50 (NCI-H226 lung): > 100 µM
- TGI (NCI-H226 lung): > 100 µM

Compound: CC(C)C(N)(C(=O)O)c1ccccc1 (stereo not given)
- TGI (MALME-3M melanoma): > 100 µM
- TGI (NCI-H522 lung): > 100 µM
- TGI (SF-268 CNS): > 100 µM
- TGI (PC-3 prostate): > 100 µM
- TGI (SR leukemia): > 100 µM
- TGI (DU-145 prostate): > 100 µM
- TGI (A549 NSCLC): > 100 µM
- TGI (TK-10 renal): > 100 µM
- TGI (NCI-H226 lung): > 100 µM

Compound: COc1ccc(NC(=O)c2cc(OC)c(OC)c(OC)c2)cc1O
- GI50 (MALME-3M melanoma): 29.4 µM
- TGI (MALME-3M melanoma): > 100 µM
- GI50 (SF-268 CNS): 5.43 µM
- TGI (SF-268 CNS): > 100 µM
- GI50 (PC-3 prostate): 2.52 µM
- TGI (PC-3 prostate): > 100 µM
- GI50 (MOLT-4 leukemia): 3.42 µM
- TGI (MOLT-4 leukemia): > 100 µM
- GI50 (SR leukemia): 0.313 µM
- TGI (SR leukemia): > 100 µM
- GI50 (DU-145 prostate): 3.96 µM
- TGI (DU-145 prostate): > 100 µM
- GI50 (A549 NSCLC): 4.59 µM
- TGI (A549 NSCLC): > 100 µM
- GI50 (TK-10 renal): > 100 µM
- TGI (TK-10 renal): > 100 µM
- GI50 (NCI-H226 lung): 13.8 µM
- TGI (NCI-H226 lung): > 100 µM

Compound: Oc1c(CN2CCCC2)cc(COCc2ccccc2)c2cccnc12
- GI50 (MALME-3M melanoma): 3.35 µM
- TGI (MALME-3M melanoma): 14.4 µM
- GI50 (NCI-H522 lung): 2.62 µM
- TGI (NCI-H522 lung): 9.97 µM
- GI50 (SF-268 CNS): 1.99 µM
- TGI (SF-268 CNS): 18.5 µM
- GI50 (PC-3 prostate): 2.73 µM
- TGI (PC-3 prostate): 23.3 µM
- GI50 (MOLT-4 leukemia): 2.96 µM
- TGI (MOLT-4 leukemia): 11.4 µM
- GI50 (SR leukemia): 1.83 µM
- TGI (SR leukemia): 16.9 µM
- GI50 (DU-145 prostate): 3.4 µM
- TGI (DU-145 prostate): 16.8 µM
- GI50 (A549 NSCLC): 3.35 µM
- TGI (A549 NSCLC): 14.1 µM
- GI50 (TK-10 renal): 1.84 µM
- TGI (TK-10 renal): 22.3 µM
- GI50 (NCI-H226 lung): 2.69 µM
- TGI (NCI-H226 lung): 12 µM

Compound: CCNCC(O)c1ccc(N)c([N+](=O)[O-])c1 (stereo not given)
- TGI (NCI-H522 lung): > 100 µM
- TGI (SF-268 CNS): > 100 µM
- TGI (PC-3 prostate): > 100 µM
- TGI (MOLT-4 leukemia): > 100 µM
- TGI (SR leukemia): > 100 µM
- TGI (DU-145 prostate): > 100 µM
- TGI (A549 NSCLC): > 100 µM
- TGI (TK-10 renal): > 100 µM
- TGI (NCI-H226 lung): > 100 µM

Compound: Fc1ccc(-c2ncn(C3CCNCC3)c2-c2ccnc(Oc3cccc(F)c3)n2)cc1
- GI50 (MALME-3M melanoma): 6.71 µM
- TGI (MALME-3M melanoma): 16.8 µM
- GI50 (NCI-H522 lung): > 14.7 µM
- TGI (NCI-H522 lung): > 25 µM
- GI50 (SF-268 CNS): > 23.3 µM
- TGI (SF-268 CNS): > 25 µM
- GI50 (PC-3 prostate): 16.5 µM
- TGI (PC-3 prostate): > 25 µM
- GI50 (MOLT-4 leukemia): 12.7 µM
- TGI (MOLT-4 leukemia): > 25 µM
- GI50 (DU-145 prostate): > 21.3 µM
- TGI (DU-145 prostate): > 25 µM
- GI50 (A549 NSCLC): 24.7 µM
- TGI (A549 NSCLC): > 25 µM
- GI50 (TK-10 renal): 17.1 µM
- TGI (TK-10 renal): > 25 µM
